Laboratory results taken from patent US7737112B2, “Composition for enzyme inhibition” (Onyx Therapeutics, Inc., priority 2004, dated 2010).

Experiments:
Assay type in all cases: physicochemical
[1] = reconstitution of lyophilized (3x) peptide (a)/SBECD formulation
Experimental: 6 mg/mL peptide (a) was formulated in an aqueous solution containing 30% (w/v) SBECD and 30 mM citric acid adjusted to pH 3.5 with 0.5 M aqueous sodium hydroxide.
(§1) Appropriate masses of SBECD and citric acid were added to a volume of WFI corresponding to 70% that of the final formulation. This mixture was then stirred at room temperature until complete dissolution of the SBECD and citric acid was effected. An appropriate mass of peptide (a) was then added and the resulting mixture stirred at room temperature until the added peptide (a) was dissolved. A pH electrode was then immersed in the solution and, with rapid stirring, the pH was adjusted to 3.5 by slow addition of 0.5 M sodium hydroxide in WFI; slow addition of the sodium hydroxide solution with adequate stirring was necessary to prevent precipitation of peptide (a). With rapid stirring, the resulting solution was then diluted with WFI to a final peptide (a) concentration of 6.0 mg/mL. This solution was then sterile filtered to yield the final formulation.
The vials containing product were loaded onto the shelves and the temperature set for 5° C. for 2 hrs. […]
Reconstitution was effected by addition of 9.75 mL of WFI, USP to produce the desired fill volume within the vial of 10.5 mL. […] The pH measured was 3.5±0.1.

[2] = solubility of peptide epoxy ketones in cyclodextrin formulations
Experimental: 100 μg/mL peptide (b) was formulated in an aqueous solution containing 130 mg/mL hydroxypropyl beta cyclodextrin (HPBCD) and ca. 0.9% (w/v) NaCl.
2 mg/mL peptide (a) was formulated in an aqueous solution containing 10% (w/v) SBECD and 10 mM citric acid adjusted to pH 3.5 with 0.1 M aqueous sodium hydroxide.
as §1, with “approximately 75%” for “70%”, “0.1” for “0.5”, “2.0” for “6.0”
Several other final pH values were used for the peptide (a)/SBECD formulations.

[3] = room temperature stability of reconstituted peptide (b)/HPBCD drug product; conditions: 100 μg/mL peptide (b)/HPBCD solid reconstituted in aqueous 0.9% (w/v) NaCl, sterile filtered
Experimental: The desired quantity of peptide (b) was weighed and dissolved in absolute ethanol at a concentration of 1 mg/mL. For each 1 mg of peptide (b) to be formulated, 1.3 g HPBCD was dissolved in absolute ethanol at a concentration of 10 mg/mL. This ethanol/HPBCD solution was then combined with the ethanol/peptide (b) solution, stirred 5 minutes at room temperature and then evaporated under reduced pressure (rotovapped) to yield a white solid. This solid was placed under high vacuum (ca. 1 mTorr) for 24 hrs, pulverized and then placed under high vacuum (ca. 1 mTorr) for another 4 hrs to yield dry solid. The final formulation was prepared by dissolving this solid drug product to a final concentration of 100 μg peptide (b)/mL solid drug product in ice cold USP grade aqueous 0.9% (w/v) NaCl followed by sterile filtration. Room temperature stability of the reconstituted drug product was ca. 12 hrs.

SMILES	time for dissolution on reconstitution ([1]; lyophilized 6 mg/mL peptide (a), 30% (w/v) SBECD, 30 mM citric acid pH 3.5, 9.75 mL WFI added, fill volume 10.5 mL)	pH measured after reconstitution ([1]; lyophilized peptide (a)/SBECD/citrate formulation reconstituted with WFI)	solubility when formulated with a cyclodextrin [2]	Room temperature stability of the reconstituted drug product [3]	state of the solution at room temperature ([2]; 100 μg/mL in aqueous 130 mg/mL HPBCD, ca. 0.9% (w/v) NaCl, could not be made by simply dissolving)
CC(C)C[C@H](NC(=O)[C@H](CCc1ccccc1)NC(=O)CN1CCOCC1)C(=O)N[C@@H](Cc1ccccc1)C(=O)N[C@@H](CC(C)C)C(=O)[C@@]1(C)CO1 [peptide (a)]	less than 2 minutes	3.5±0.1	significantly enhanced	–	–
CC(=O)N[C@@H](CCc1ccccc1)C(=O)N[C@@H](CC(C)C)C(=O)N[C@@H](Cc1ccccc1)C(=O)N[C@@H](CC(C)C)C(=O)[C@@]1(C)CO1 [peptide (b)]	–	–	significantly enhanced	ca. 12 hrs	supersaturated (metastable)
